Experimental data from patent US20060094755A1, “Novel quinoline-based metal chelators as antiviral agents” (Bioflexis, LLC, priority 2004, published 2006).

Legend:
IN (integrase) = biological target: T1, IN (integrase) (Human immunodeficiency virus type 1 group M subtype B, UniProt P12497); settings: cited from earlier work
T1 construct: HIV-1 recombinant IN (HIV-1NL4-3 Integrase, NIH AIDS Reagent program Catalog No:2959); purchased NIH AIDS Reagent program 2959

HIV = settings: ex-vivo viral inhibition assay; cited from earlier work
HIV-1 MC99IIIBΔTat-Rev = assay: viral inhibition assay (p24 ELISA, CEM-TART cells), FIG. 4; type: cell-based; settings: Human immunodeficiency virus 1
Text: The novel compounds of the present invention can be further evaluated for their ability to inhibit viral replication in ex-vivo assays. Most common of these include determining the viral replication in either purified human CD4+ T cell blasts infected with HIV in the presence or absence of various concentrations of inhibitors or HIV infected MT4 cell line treated with different concentration of inhibitors. A standard laboratory method in screening for inhibitors against HIV in biological assays involves the use of recombinant HIV strain that can replicate only in the supporting complementing cell line. This model system allows the examination of HIV viral replication in a biologically contained manner and is suitable for inhibitor screening. The method is described briefly below. The recombinant HIV-1 strain (HIV-1 MC99IIIBΔTat-Rev; NIH Aids Reagent Program, catalog No: 1943) is genetically engineered to replicate only in supporting recombinant cell lines (CEM-TART Cells, NIH Aids Reagent Program catalog No 1944). The construction of the recombinant mutant virus, the supporting cell line and the biological assay are described in detail elsewhere. […] The extent of viral replication can be determined by measuring the soluble viral p24 protein present in the culture supernatant collected at 24, 48, 72 and 96-hr post infection using commercial ELISA kits.

SMILES | inhibition of 3′ processing (IN (integrase)) | inhibition of strand transfer reaction (IN (integrase)) | EC50 (HIV) | IC50 (HIV-1 MC99IIIBΔTat-Rev)
O=C(O)C(=O)CC(=O)c1cc(OCc2ccccc2)cc(OCc2ccccc2)c1 [Compound 6] | do not inhibit 3′ processing | inhibit strand transfer reaction | – | –
O=C(O)C(=O)CC(=O)c1cccn1Cc1ccc(F)cc1 [Compound 8] | do not inhibit 3′ processing | inhibit strand transfer reaction | – | –
O=C(/C=C(\O)c1nn[nH]n1)c1c[nH]c2ccc(Cl)cc12 [Compound 10] | inhibit both reactions | inhibit both reactions | 0.7 µM | –
O=C(O)CN(CCN(CCN(CC(=O)O)CC(=O)O)Cc1ccc2cccc(O)c2n1)CC(=O)O [Compound 16] | – | – | – | 19.3 µM
